Results: the C3SDB collision cross section collection
Values belong to the molecule of their own block, whether it stands above or below them.

What was measured:
[1] = instrument: DT, stepped-field
[2] = instrument: DT, stepped-field; remark: listed apart in the source
[3] = instrument: DT, single field, calibrated with Agilent tune mix (Agilent)

Compound: CCCCCCCCCCCCC=CC[C@@H](O)[C@H](CO)NC(=O)CC=CCCCCCCCCCCCCCCCCCCCC [Cer(42:02)]
collision cross section (N2) ([1]; [M+H-2H2O]+): 271.35 Å² | collision cross section (N2) ([1]; [M+H-H2O]+): 273.26 Å² | collision cross section (N2) ([1]; [M+H]+): 276.77 Å²

Compound: CCCCCCCCCCCCCCCC(=O)N[C@@H](CO[C@@H]1O[C@H](CO)[C@@H](O)C(O)C1O)[C@H](O)CCCCCCCCCCCCCCC (some centres not stated) [GlcCer(34:00)]
collision cross section (N2) ([1]; [M+Na]+): 280.92 Å²

Compound: CCCCC/C=C\C/C=C\C/C=C\C/C=C\CCCC(=O)O[C@H](COC(=O)CCCCCCCCCCCCCCC)COP(=O)(O)O [PA(36:04)]
collision cross section (N2) ([1]; [M+2Na-H]+): 270.03 Å² | collision cross section (N2) ([1]; [M+Na]+): 268.39 Å²

Compound: CC/C=C\C/C=C\C/C=C\C/C=C\C/C=C\C/C=C\CCC(=O)OC[C@H](COP(=O)(O)OC[C@H](N)C(=O)O)OC(=O)CCCCCCCCCCCCCCCCCC [PS(41:06)]
collision cross section (N2) ([1]; [M+2Na-H]+): 296.18 Å²

Compound: CCCCC/C=C\C/C=C\CCCCCCCCCCCC(=O)O[C@H](COC(=O)CCCCCCCCCCCCCC)COP(=O)(O)OC[C@H](N)C(=O)O [PS(37:02)]
collision cross section (N2) ([1]; [M+2Na-H]+): 289.29 Å²

Compound: CCCCCCCCCCCCC=CC[C@@H](O)[C@H](CO)NC(=O)CCCCCCCCCCCCCCCCCCCCCCC [Cer(42:01)]
collision cross section (N2) ([1]; [M+H-2H2O]+): 273.88 Å² | collision cross section (N2) ([1]; [M+H-H2O]+): 275.06 Å² | collision cross section (N2) ([1]; [M+H]+): 277.56 Å²

Compound: CCCCCCCCCCCCC=CC[C@@H](O)[C@H](COP(=O)([O-])OCC[N+](C)(C)C)NC(=O)CCCCCCCCCCCCCCCC [SM(35:01)]
collision cross section (N2) ([1]; [M+Na]+): 280.61 Å²

Compound: CCCCC/C=C\C/C=C\C/C=C\CCCCCCC(=O)O[C@H](COC(=O)CCCCCCC/C=C\CCCCCCCC)COP(=O)(O)OC[C@H](N)C(=O)O [PS(38:04)]
collision cross section (N2) ([1]; [M+2Na-H]+): 288.75 Å² | collision cross section (N2) ([1]; [M+H]+): 284.44 Å² | collision cross section (N2) ([1]; [M+K]+): 289.37 Å² | collision cross section (N2) ([1]; [M-H]-): 285.11 Å²

Compound: CCCCCCCCCCCCC=CC[C@@H](O)[C@H](COP(=O)([O-])OCC[N+](C)(C)C)NC(=O)CCCCCCCCCCCCCCCCCC [SM(37:01)]
collision cross section (N2) ([1]; [M+H]+): 288.67 Å² | collision cross section (N2) ([1]; [M+Na]+): 285.35 Å²

Compound: CCCCCCCCCCCCC=CC[C@@H](O)[C@H](CO[C@@H]1O[C@H](CO)[C@@H](O)C(O)C1O)NC(=O)CCCCCCCCCCCCCCCCC (some centres not stated) [GlcCer(36:01)]
collision cross section (N2) ([1]; [M+Cl]-): 284.18 Å² | collision cross section (N2) ([1]; [M+H-H2O]+): 279.86 Å² | collision cross section (N2) ([1]; [M+HCOO]-): 287.29 Å² | collision cross section (N2) ([1]; [M+H]+): 282.43 Å² | collision cross section (N2) ([1]; [M+Na]+): 284 Å²

Compound: CCCCCC/C=C\CCCCCCCCCC(=O)O[C@H](COC(=O)CCCCCCCCCCCCCCC)COP(=O)(O)OCCN [PE(34:01)]
collision cross section (N2) ([1]; [M+2Na-H]+): 275.64 Å² | collision cross section (N2) ([1]; [M+H]+): 270.06 Å² | collision cross section (N2) ([1]; [M+K]+): 277.57 Å² | collision cross section (N2) ([1]; [M+Na]+): 276.03 Å² | collision cross section (N2) ([1]; [M-H]-): 266.91 Å²

Compound: CCCCCCCCCCCCC=CC[C@@H](O)[C@H](COP(=O)([O-])OCC[N+](C)(C)C)NC(=O)CCCCCCCCCCCCCCCCCCC [SM(38:01)]
collision cross section (N2) ([1]; [M+Cl]-): 294.7 Å² | collision cross section (N2) ([1]; [M+HCOO]-): 296.3 Å² | collision cross section (N2) ([1]; [M+H]+): 292.26 Å² | collision cross section (N2) ([1]; [M+Na]+): 292.18 Å²

Compound: CCCCCCCC/C=C\CCCCCCCCCCCC(=O)O[C@H](COC(=O)CCCCCCCCCCCCCCC)COP(=O)(O)OCCN [PE(38:01)]
collision cross section (N2) ([1]; [M+Na]+): 285.93 Å²

Compound: CCCCCCCCCC/C=C\CCCCCCCCCC(=O)O[C@H](COC(=O)CCCCCCCCCCCCCC)COP(=O)(O)OC[C@H](N)C(=O)O [PS(37:01)]
collision cross section (N2) ([1]; [M+2Na-H]+): 293.47 Å²

Compound: OC[C@@H](O)C(O)[C@@H](O)CO (some centres not stated) [Xylitol]
collision cross section (N2) ([2]; [M+Na]+): 140.79 Å² | collision cross section (N2) ([3]; [M+Na]+): 135.3 Å² | collision cross section (N2) ([3]; [M-H]-): 122.4 Å²

Compound: CC(=O)N[C@H]1C(O)O[C@H](CO)[C@@H](O)[C@@H]1O (stereo partly drawn) [N-Acetyl-D-glucosamine]
collision cross section (N2) ([2]; [M+Na]+): 160.36 Å² | collision cross section (N2) ([3]; [M+H]+): 147.3 Å²

Further lines, results first:

collision cross section (N2) ([1]; [M+H-H2O]+): 301.46 Å² | collision cross section (N2) ([1]; [M+H]+): 305.11 Å² | collision cross section (N2) ([1]; [M+Na]+): 306.31 Å²
Compound: CCCCCCCCCCCCC=CC[C@@H](O)[C@H](CO[C@@H]1O[C@H](CO)[C@@H](O)C(O)C1O)NC(=O)CC=CCCCCCCCCCCCCCCCCCCCCCC (some centres not stated) [GlcCer(44:02)]

collision cross section (N2) ([1]; [M+2Na-H]+): 282.12 Å² | collision cross section (N2) ([1]; [M+Na]+): 280.15 Å²
Compound: CCCCC/C=C\C/C=C\CCCCCCCC(=O)OC[C@H](COP(=O)(O)OCCN)OC(=O)CCCCCCC/C=C\CCCCCCCCC [PE(37:03)]

collision cross section (N2) ([1]; [M+K]+): 274.4 Å²
Compound: CC/C=C\C/C=C\C/C=C\C/C=C\CCCCC(=O)O[C@H](COC(=O)CCCCCCC/C=C\CCCCCCCC)COP(=O)(O)OCCN [PE(36:05)]

collision cross section (N2) ([1]; [M+H]+): 302.04 Å² | collision cross section (N2) ([1]; [M+Na]+): 302.4 Å²
Compound: CCCCCCCCCCCCC=CC[C@@H](O)[C@H](CO[C@@H]1O[C@H](CO)[C@@H](O)C(O)C1O)NC(=O)CC=CCCCCCCCCCCCCCCCCCCCCC (some centres not stated) [GlcCer(43:02)]

collision cross section (N2) ([1]; [M+H-H2O]+): 294.63 Å² | collision cross section (N2) ([1]; [M+H]+): 297.12 Å² | collision cross section (N2) ([1]; [M+Na]+): 297.42 Å²
Compound: CCCCCCCCCCCCC=CC[C@@H](O)[C@H](CO[C@@H]1O[C@H](CO)[C@@H](O)C(O)C1O)NC(=O)CCCCCCCCCCCCCCCCCCCCCC (some centres not stated) [GlcCer(41:01)]

collision cross section (N2) ([1]; [M+H]+): 301.14 Å² | collision cross section (N2) ([1]; [M+Na]+): 299.31 Å²
Compound: CCCCCCCCCCCCC=CC[C@@H](O)[C@H](COP(=O)([O-])OCC[N+](C)(C)C)NC(=O)CCCCCCCCCCCCCCCCCCCCCC [SM(41:01)]

collision cross section (N2) ([1]; [M+Cl]-): 305.77 Å² | collision cross section (N2) ([1]; [M+HCOO]-): 306.96 Å² | collision cross section (N2) ([1]; [M+H]+): 303.17 Å² | collision cross section (N2) ([1]; [M+Na]+): 302.6 Å²
Compound: CCCCCCCCCCCCC=CC[C@@H](O)[C@H](COP(=O)([O-])OCC[N+](C)(C)C)NC(=O)CCCCCCCCCCCCCCCCCCCCCCC [SM(42:01)]

collision cross section (N2) ([1]; [M+H]+): 297.81 Å²
Compound: CCCCCCCCCCCCC=CC[C@@H](O)[C@H](COP(=O)([O-])OCC[N+](C)(C)C)NC(=O)CC=CCC=CCC=CCCCCCCCCCCCCCC [SM(42:04)]

collision cross section (N2) ([1]; [M+2Na-H]+): 271.58 Å² | collision cross section (N2) ([1]; [M+Na]+): 270.85 Å²
Compound: CCCCC/C=C\C/C=C\C/C=C\CCCCC(=O)O[C@H](COCCCCCCCCCCCCCCCC)COP(=O)(O)OCCN [PE(o34:03)]

collision cross section (N2) ([2]; [M+H]+): 246.5 Å² | collision cross section (N2) ([2]; [M+Na]+): 248.83 Å² | collision cross section (N2) ([3]; [M+Na]+): 246.7 Å² | collision cross section (N2) ([3]; [M-H]-): 242.04 Å²
Compound: C=CC1=C(C)C(/C=c2\[nH]/c(=C\c3[nH]c(/C=C4\NC(=O)C(C)=C4C=C)c(C)c3CCC(=O)O)c(CCC(=O)O)c2C)=NC1=O [Biliverdin]

collision cross section (N2) ([2]; [M+H]+): 139.03 Å² | collision cross section (N2) ([2]; [M+Na]+): 149.63 Å² | collision cross section (N2) ([3]; [M+Na-2H]-): 141 Å²
Compound: CC(=O)N[C@@H](CCC(=O)O)C(=O)O [N-Acetyl-L-glutamate]

collision cross section (N2) ([2]; [M+Na]+): 181.14 Å² | collision cross section (N2) ([3]; [M+Na]+): 176.8 Å²
Compound: OC[C@H]1O[C@H](OC[C@H]2OC(O)[C@H](O)[C@@H](O)[C@@H]2O)[C@H](O)[C@@H](O)[C@H]1O (some centres not stated) [Melibiose]

collision cross section (N2) ([2]; [M+H]+): 186.73 Å² | collision cross section (N2) ([2]; [M+Na]+): 169.03 Å² | collision cross section (N2) ([3]; [M+H]+): 181.2 Å² | collision cross section (N2) ([3]; [M-H]-): 182.13 Å²
Compound: CC(=O)[C@H]1CC[C@H]2[C@@H]3CCC4=CC(=O)CC[C@]4(C)[C@H]3CC[C@]12C [Progesterone]
